Results published in patent US9701689B2, “Substituted pyridines and pyridazines as CCR10 receptor inhibitors” (KYOWA HAKKO KIRIN CO., LTD., priority 2012, dated 2017).

These molecules were tested against T1, human CCR10 (Homo sapiens, UniProt P46092) (assay: CCR10 antagonistic effect: calcium assay of human CCR10 (CTACK-induced increase of intracellular calcium in hCCR10G16 cells)). Conditions: at a concentration of not more than 1000 nmol/L; human CCR10-expressing hCCR10G16 cells, 300 nmol/L CTACK added; read-out: inhibition of increase in the calcium ion concentration.
T1 construct: expressed in transfected cells; host or cells: KJMGER8 cells (Namalwa cell-derived line), beta-estradiol-induced; hCCR10G16 cells
T1 sequence (P46092 1-362): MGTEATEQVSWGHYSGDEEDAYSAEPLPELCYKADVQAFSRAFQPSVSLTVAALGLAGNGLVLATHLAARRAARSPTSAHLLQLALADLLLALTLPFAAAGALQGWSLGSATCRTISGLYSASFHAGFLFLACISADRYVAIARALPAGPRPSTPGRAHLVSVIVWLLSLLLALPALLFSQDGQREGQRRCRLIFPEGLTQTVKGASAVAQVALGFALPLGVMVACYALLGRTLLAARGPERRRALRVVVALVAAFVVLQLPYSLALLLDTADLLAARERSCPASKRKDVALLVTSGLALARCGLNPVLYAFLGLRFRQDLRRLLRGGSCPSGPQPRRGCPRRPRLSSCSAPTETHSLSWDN
Type: cell-based
Method in brief: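 Inhibition of CTACK-evoked calcium flux (max minus min Fluo-3 fluorescence over ~5 min, FDSS) was calculated against control in β-estradiol-induced human CCR10/Gα16 KJMGER8 cells, after 30 min compound preincubation at 37 °C; CTACK added from a 300 nmol/L solution.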

Inhibition at up to 1 µM, ≥ 50%:
Cc1cc(F)ccc1Nc1cc(S(=O)(=O)Nc2cc(C(C)(C)C)on2)ncc1C(=O)N1CCC(c2ccc(F)cc2)CC1 [Compound 159, N-(5-tert-butylisoxazol-3-yl)-4-(4-fluoro-2-methylphenylamino)-5-[4-(4-fluorophenyl)piperidine-1-carbonyl]pyridine-2-sulfonamide]
Cc1cccc(Nc2c(C(=O)N3CCN(c4ccccc4Cl)CC3)cnc(S(N)(=O)=O)c2Cl)c1 [Compound 206, 3-chloro-5-[4-(2-chlorophenyl)piperazine-1-carbonyl]-4-(m-tolylamino)pyridine-2-sulfonamide]
NS(=O)(=O)c1cc(Nc2cc(F)ccc2Cl)c(C(=O)N2CCC(c3ccc(F)cc3)CC2)cn1 [Compound 70, 4-(2-chloro-5-fluorophenylamino)-5-[4-(4-fluorophenyl)piperidine-1-carbonyl]pyridine-2-sulfonamide]
NS(=O)(=O)c1cc(Nc2ccc(Cl)cc2)c(C(=O)N2CCC(c3ccc(F)cc3)CC2)cn1 [Compound 82, 4-(4-chlorophenylamino)-5-[4-(4-fluorophenyl)piperidine-1-carbonyl]pyridine-2-sulfonamide]
Cc1cc(NS(=O)(=O)c2ncc(C(=O)N3CCC(c4ccc(F)cc4)CC3)c(Nc3ccc(F)cc3C)c2C)sn1 [Compound 266, 4-(4-fluoro-2-methylphenylamino)-5-[4-(4-fluorophenyl)piperidine-1-carbonyl]-3-methyl-N-(3-methylisothiazol-5-yl)pyridine-2-sulfonamide]
Cc1ccc(Nc2cc(S(N)(=O)=O)ncc2C(=O)N2CCC(c3ccc(F)cc3)CC2)c(F)c1 [Compound 56, 4-(2-fluoro-4-methylphenylamino)-5-[4-(4-fluorophenyl)piperidine-1-carbonyl]pyridine-2-sulfonamide]
Cc1cnc(C)c(Nc2c(C(=O)N3CCC(c4ccc(F)cc4)CC3)cnc(S(N)(=O)=O)c2Cl)c1 [Compound 326, 3-chloro-4-(2,5-dimethylpyridin-3-ylamino)-5-[4-(4-fluorophenyl)piperidine-1-carbonyl]pyridine-2-sulfonamide]
Cc1cc(F)ccc1Nc1cc(S(N)(=O)=O)nnc1C(=O)N1CCC(c2ccc(F)cc2)CC1 [Compound 229, 5-(4-fluoro-2-methylphenylamino)-6-[4-(4-fluorophenyl)piperidine-1-carbonyl]pyridazine-3-sulfonamide]
Cc1cc(F)ccc1Nc1c(C(=O)N2CCC(c3ccc(F)cc3)CC2)cnc(S(=O)(=O)O)c1Cl [Compound 24, 3-chloro-4-(4-fluoro-2-methylphenylamino)-5-[4-(4-fluorophenyl)piperidine-1-carbonyl]pyridine-2-sulfonic acid]
